Test system: bone marrow inhibition of chemotherapeutic drug Cisplatin
Test: Efficacy test for improving the bone marrow inhibition of chemotherapeutic drug cisplatin in C57BL/6 immune normal mice
Assay type: in vivo
Conditions: cisplatin alone 20 mg/kg i.p. day 1
Description: The animals used in this study were C57B116 mice which were commercially available from Taiwan Experimental Animal Centers and six weeks old. The feeding temperature was controlled to be 25±2° C., the illumination time was 08: 00-20: 00, sufficient feed and drinking water were provided daily, and the padding was replaced twice a week.
The cisplatin (cis, 20 mg/kg) was administered by intraperitoneal injection on the first day. The Antrodia cinnamomea composition (400 mg/kg) was administered in a tube-teed manner on the 1st to 5th day, and the time of tube feeding on the first day was 4 hours after the chemotherapeutic drug was administered. The animal groups were the control group,Cis and Antrodia cinnamomea compositions (AC) respectively, with 6 mice in each group and 18 mice in 3 groups.
The experimental animals were sacrificed in a CO2 manner on the sixth day, the thigh bones of the mice were surgically removed, both ends of the bones were cut, bone marrow cells were flushed out, and after centrifugation and washing, the cells were added to MethoCult M3334 medium or MethoCult M3234 medium, and allowed to stand in a humidified incubator containing 5% CO2 at 37° C. and cultured, the former was cultured for 48 hours to observe by microscope and calculate the number of CFU-E (Colony-forming unit-erythroid) colonies, and the latter was cultured for 7 days to observe by microscope and calculate the number of CFU-GM(Colony-forming unit-granulocyte, macrophage) colonies. The colony numbers of CFU-E and CFU-GM were counted by observation in the whole field of view.
Before the experimental animals were sacrificed, the whole blood was collected in a cheek blood collection manner, and anticoagulant whole blood was used for complete blood count (CBC) to determine the number of peripheral white blood cells.
One-way analysis of variance (One-Way ANOVA) was used for data analysis. When the analysis result reached a significant level, Fisher LSD was used for subsequent comparison.

N.N.[Cl][Pt][Cl] [cisplatin]
number of white blood cells (peripheral blood) (FIG. 5): can reduce the number of white blood cells | number of CFU-GM (myeloid leukocyte precursor cells) (FIG. 6): inhibits the number of myeloid leukocyte precursor cells CFU-GM | number of CFU-E (bone marrow red blood cell precursor cells) (FIG. 7): can inhibit the number of bone marrow red blood cell precursor cells CFU-E

— patent US20220000952A1, “METHOD PREPARING ANTRODIA CINNAMOMEA EXTRACT AND ANTRODIA CINNAMOMEA COMPOSITION, AND PHARMACEUTICAL COMPOSITION” (priority 2018, published 2022)
